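Exposure lasted 48 hours, with cells grown in 96-well plates and compounds tested at five concentrations. At the GI50, growth is halved. TGI: total growth inhibition.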
Tests used:
Assay in all cases: DTP human tumour cell line panel, 48 h; in the data active means GI50 below about 0.43 µM; inactive means the rest
OVCAR-5 ovarian = test system: OVCAR-5 ovarian
UACC-62 melanoma = test system: UACC-62 melanoma
HT29 colon = test system: HT29 colon
M14 melanoma = test system: M14 melanoma
SW-620 colon = test system: SW-620 colon
KM12 colon = test system: KM12 colon
ACHN renal = test system: ACHN renal
SNB-19 CNS = test system: SNB-19 CNS
OVCAR-8 ovarian = test system: OVCAR-8 ovarian
SK-MEL-28 melanoma = test system: SK-MEL-28 melanoma
SNB-75 CNS = test system: SNB-75 CNS
RXF 393 renal = test system: RXF 393 renal
UACC-257 melanoma = test system: UACC-257 melanoma
BT-549 breast = test system: BT-549 breast
HOP-92 NSCLC = test system: HOP-92 NSCLC
SF-295 CNS = test system: SF-295 CNS
786-0 renal = test system: 786-0 renal
SK-MEL-2 melanoma = test system: SK-MEL-2 melanoma
NCI-H460 lung = test system: NCI-H460 lung
SF-268 CNS = test system: SF-268 CNS
HCC-2998 colon = test system: HCC-2998 colon
DU-145 prostate = test system: DU-145 prostate
MCF7 breast = test system: MCF7 breast
NCI/ADR-RES ovarian = test system: NCI/ADR-RES ovarian
HCT-15 colon = test system: HCT-15 colon
MDA-MB-435 = test system: MDA-MB-435
MALME-3M melanoma = test system: MALME-3M melanoma
HL-60(TB) leukemia = test system: HL-60(TB) leukemia
LOX IMVI melanoma = test system: LOX IMVI melanoma
SK-OV-3 ovarian = test system: SK-OV-3 ovarian
NCI-H23 lung = test system: NCI-H23 lung
UO-31 renal = test system: UO-31 renal
CAKI-1 renal = test system: CAKI-1 renal
HCT-116 colon = test system: HCT-116 colon
HS 578T breast = test system: HS 578T breast
T-47D breast = test system: T-47D breast
SN12C renal = test system: SN12C renal
SF-539 CNS = test system: SF-539 CNS
SR leukemia = test system: SR leukemia
IGROV1 ovarian = test system: IGROV1 ovarian
EKVX NSCLC = test system: EKVX NSCLC
OVCAR-4 ovarian = test system: OVCAR-4 ovarian
PC-3 prostate = test system: PC-3 prostate
A498 renal = test system: A498 renal
A549 NSCLC = test system: A549 NSCLC
U251 CNS = test system: U251 CNS
HOP-62 NSCLC = test system: HOP-62 NSCLC
COLO 205 colon = test system: COLO 205 colon
NCI-H226 lung = test system: NCI-H226 lung
TK-10 renal = test system: TK-10 renal
NCI-H522 lung = test system: NCI-H522 lung
OVCAR-3 ovarian = test system: OVCAR-3 ovarian

COc1ccc(S(=O)(=O)NCCNc2nccc(-c3c(-c4ccccc4)nc4sccn34)n2)cc1
8.9 µM: TGI (A498 renal)
91 µM: TGI (RXF 393 renal)
47.4 µM: TGI (HS 578T breast)
65.7 µM: TGI (HOP-92 NSCLC)
inactive: GI50 (OVCAR-5 ovarian) > 100 µM | GI50 (UACC-62 melanoma) 1170 nM | GI50 (HT29 colon) 1720 nM | GI50 (M14 melanoma) 2770 nM | GI50 (SW-620 colon) 5.03 µM | GI50 (KM12 colon) 513 nM | GI50 (ACHN renal) 2020 nM | GI50 (SNB-19 CNS) 8.78 µM | GI50 (OVCAR-8 ovarian) 3.08 µM | GI50 (SK-MEL-28 melanoma) 5.79 µM | GI50 (SNB-75 CNS) 1820 nM | GI50 (RXF 393 renal) 5.71 µM | GI50 (UACC-257 melanoma) 6.47 µM | GI50 (BT-549 breast) 3.56 µM | GI50 (HOP-92 NSCLC) 3.73 µM | GI50 (SF-295 CNS) 6.52 µM | GI50 (786-0 renal) 3.42 µM | GI50 (SK-MEL-2 melanoma) 4.98 µM | GI50 (NCI-H460 lung) 1240 nM | GI50 (SF-268 CNS) 3.74 µM | GI50 (HCC-2998 colon) 16.1 µM | GI50 (DU-145 prostate) 3.37 µM | GI50 (MCF7 breast) 873 nM | GI50 (NCI/ADR-RES ovarian) 5.18 µM | GI50 (HCT-15 colon) 2420 nM | GI50 (MDA-MB-435) 1220 nM | GI50 (MALME-3M melanoma) 8.77 µM | GI50 (HL-60(TB) leukemia) 2870 nM | GI50 (LOX IMVI melanoma) 3.94 µM | GI50 (SK-OV-3 ovarian) 4.18 µM | GI50 (NCI-H23 lung) 7.35 µM | GI50 (UO-31 renal) 706 nM | GI50 (CAKI-1 renal) 1290 nM | GI50 (HCT-116 colon) 1580 nM | GI50 (HS 578T breast) 2180 nM | GI50 (T-47D breast) 3.17 µM | GI50 (SN12C renal) 1930 nM | GI50 (SF-539 CNS) 13.7 µM | GI50 (SR leukemia) 784 nM | GI50 (IGROV1 ovarian) 2130 nM | GI50 (EKVX NSCLC) 7.11 µM | GI50 (OVCAR-4 ovarian) 3.62 µM | GI50 (PC-3 prostate) 1640 nM | GI50 (A498 renal) 1160 nM | GI50 (A549 NSCLC) 1610 nM | GI50 (U251 CNS) 5.17 µM | GI50 (HOP-62 NSCLC) 15.3 µM | GI50 (COLO 205 colon) 2660 nM | GI50 (NCI-H226 lung) 4.66 µM | GI50 (TK-10 renal) 5.07 µM | GI50 (NCI-H522 lung) 4.64 µM | GI50 (OVCAR-3 ovarian) 3.56 µM
9.54 µM: TGI (SNB-75 CNS)
> 100 µM: TGI (OVCAR-5 ovarian) | TGI (UACC-62 melanoma) | TGI (HT29 colon) | TGI (M14 melanoma) | TGI (SW-620 colon) | TGI (KM12 colon) | TGI (ACHN renal) | TGI (SNB-19 CNS) | TGI (OVCAR-8 ovarian) | TGI (SK-MEL-28 melanoma) | TGI (UACC-257 melanoma) | TGI (BT-549 breast) | TGI (SF-295 CNS) | TGI (786-0 renal) | TGI (SK-MEL-2 melanoma) | TGI (NCI-H460 lung) | TGI (SF-268 CNS) | TGI (HCC-2998 colon) | TGI (DU-145 prostate) | TGI (MCF7 breast) | TGI (NCI/ADR-RES ovarian) | TGI (HCT-15 colon) | TGI (MDA-MB-435) | TGI (MALME-3M melanoma) | TGI (HL-60(TB) leukemia) | TGI (LOX IMVI melanoma) | TGI (SK-OV-3 ovarian) | TGI (NCI-H23 lung) | TGI (UO-31 renal) | TGI (CAKI-1 renal) | TGI (HCT-116 colon) | TGI (T-47D breast) | TGI (SN12C renal) | TGI (SF-539 CNS) | TGI (SR leukemia) | TGI (IGROV1 ovarian) | TGI (EKVX NSCLC) | TGI (OVCAR-4 ovarian) | TGI (PC-3 prostate) | TGI (A549 NSCLC) | TGI (U251 CNS) | TGI (HOP-62 NSCLC) | TGI (COLO 205 colon) | TGI (NCI-H226 lung) | TGI (TK-10 renal) | TGI (NCI-H522 lung) | TGI (OVCAR-3 ovarian)
